Results reported in PubChem BioAssay (NCI).
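Step 1: Grow cells in 96-well plates. Step 2: Expose to compound for 48 hours at 5 concentrations. Step 3: Interpolate endpoints linearly; if unreached, use highest concentration. The concentration for 50% growth inhibition is given as GI50. TGI denotes the concentration required for complete inhibition of growth.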

Legend:
Assay in all cases: DTP human tumour cell line panel, 48 h
SK-OV-3 ovarian = system: SK-OV-3 ovarian
SR leukemia = system: SR leukemia
RXF 393 renal = system: RXF 393 renal
BT-549 breast = system: BT-549 breast
K-562 leukemia = system: K-562 leukemia
A549 NSCLC = system: A549 NSCLC
HCC-2998 colon = system: HCC-2998 colon
COLO 205 colon = system: COLO 205 colon
SNB-19 CNS = system: SNB-19 CNS
MOLT-4 leukemia = system: MOLT-4 leukemia
NCI-H522 lung = system: NCI-H522 lung
SN12C renal = system: SN12C renal
DU-145 prostate = system: DU-145 prostate
NCI-H226 lung = system: NCI-H226 lung
NCI-H460 lung = system: NCI-H460 lung
NCI-H23 lung = system: NCI-H23 lung
M14 melanoma = system: M14 melanoma
A498 renal = system: A498 renal
NCI/ADR-RES ovarian = system: NCI/ADR-RES ovarian
IGROV1 ovarian = system: IGROV1 ovarian
OVCAR-8 ovarian = system: OVCAR-8 ovarian
MALME-3M melanoma = system: MALME-3M melanoma
RPMI-8226 leukemia = system: RPMI-8226 leukemia
T-47D breast = system: T-47D breast
MCF7 breast = system: MCF7 breast
786-0 renal = system: 786-0 renal
KM12 colon = system: KM12 colon
TK-10 renal = system: TK-10 renal
HOP-62 NSCLC = system: HOP-62 NSCLC
SF-268 CNS = system: SF-268 CNS
OVCAR-5 ovarian = system: OVCAR-5 ovarian
U251 CNS = system: U251 CNS
SK-MEL-2 melanoma = system: SK-MEL-2 melanoma
SNB-75 CNS = system: SNB-75 CNS
CAKI-1 renal = system: CAKI-1 renal
SW-620 colon = system: SW-620 colon
MDA-MB-231 breast = system: MDA-MB-231 breast
EKVX NSCLC = system: EKVX NSCLC
HCT-116 colon = system: HCT-116 colon
SK-MEL-5 melanoma = system: SK-MEL-5 melanoma
PC-3 prostate = system: PC-3 prostate
SF-539 CNS = system: SF-539 CNS
MDA-MB-435 = system: MDA-MB-435
SF-295 CNS = system: SF-295 CNS
UO-31 renal = system: UO-31 renal
HS 578T breast = system: HS 578T breast
ACHN renal = system: ACHN renal
UACC-62 melanoma = system: UACC-62 melanoma
OVCAR-4 ovarian = system: OVCAR-4 ovarian
LOX IMVI melanoma = system: LOX IMVI melanoma
HL-60(TB) leukemia = system: HL-60(TB) leukemia
UACC-257 melanoma = system: UACC-257 melanoma
CCRF-CEM leukemia = system: CCRF-CEM leukemia
SK-MEL-28 melanoma = system: SK-MEL-28 melanoma
HOP-92 NSCLC = system: HOP-92 NSCLC
HT29 colon = system: HT29 colon
HCT-15 colon = system: HCT-15 colon

Cc1cc2nc3c4cc(C#N)ccc4n(CCN(C)C)c3nc2cc1C
GI50 (SK-OV-3 ovarian): 919 nM
TGI (SK-OV-3 ovarian): 9980 nM
GI50 (SR leukemia): 362 nM
TGI (SR leukemia): 3590 nM
GI50 (RXF 393 renal): 918 nM
TGI (RXF 393 renal): 2830 nM
GI50 (BT-549 breast): 2400 nM
GI50 (K-562 leukemia): 682 nM
TGI (K-562 leukemia): > 34100 nM
GI50 (A549 NSCLC): 666 nM
TGI (A549 NSCLC): 3020 nM
GI50 (HCC-2998 colon): 1030 nM
TGI (HCC-2998 colon): 2440 nM
GI50 (COLO 205 colon): 456 nM
TGI (COLO 205 colon): 1630 nM
GI50 (SNB-19 CNS): 978 nM
TGI (SNB-19 CNS): > 25200 nM
GI50 (MOLT-4 leukemia): 429 nM
TGI (MOLT-4 leukemia): > 32600 nM
GI50 (NCI-H522 lung): 505 nM
TGI (NCI-H522 lung): 1960 nM
GI50 (SN12C renal): 770 nM
TGI (SN12C renal): > 20800 nM
GI50 (DU-145 prostate): 1100 nM
TGI (DU-145 prostate): > 32700 nM
GI50 (NCI-H226 lung): 1230 nM
TGI (NCI-H226 lung): 8430 nM
GI50 (NCI-H460 lung): 416 nM
TGI (NCI-H460 lung): 2510 nM
GI50 (NCI-H23 lung): 507 nM
TGI (NCI-H23 lung): 2370 nM
GI50 (M14 melanoma): 1360 nM
TGI (M14 melanoma): 3820 nM
GI50 (A498 renal): 1930 nM
GI50 (NCI/ADR-RES ovarian): 637 nM
TGI (NCI/ADR-RES ovarian): 7080 nM
GI50 (IGROV1 ovarian): 1070 nM
TGI (IGROV1 ovarian): 5600 nM
GI50 (OVCAR-8 ovarian): 584 nM
TGI (OVCAR-8 ovarian): 3920 nM
GI50 (MALME-3M melanoma): 1380 nM
TGI (MALME-3M melanoma): 3600 nM
GI50 (RPMI-8226 leukemia): 1100 nM
TGI (RPMI-8226 leukemia): 4610 nM
GI50 (T-47D breast): 2300 nM
GI50 (MCF7 breast): 1200 nM
TGI (MCF7 breast): 6720 nM
GI50 (786-0 renal): 1340 nM
TGI (786-0 renal): > 20000 nM
GI50 (KM12 colon): 1690 nM
TGI (KM12 colon): > 29700 nM
GI50 (TK-10 renal): 1980 nM
TGI (TK-10 renal): > 23200 nM
GI50 (HOP-62 NSCLC): 755 nM
GI50 (SF-268 CNS): 1620 nM
TGI (SF-268 CNS): > 20700 nM
GI50 (OVCAR-5 ovarian): 1450 nM
TGI (OVCAR-5 ovarian): > 22600 nM
GI50 (U251 CNS): 860 nM
GI50 (SK-MEL-2 melanoma): 2180 nM
TGI (SK-MEL-2 melanoma): 6150 nM
GI50 (SNB-75 CNS): 951 nM
TGI (SNB-75 CNS): 2670 nM
GI50 (CAKI-1 renal): 381 nM
TGI (CAKI-1 renal): 3420 nM
GI50 (SW-620 colon): 411 nM
TGI (SW-620 colon): 1970 nM
GI50 (MDA-MB-231 breast): 1060 nM
TGI (MDA-MB-231 breast): > 20600 nM
GI50 (EKVX NSCLC): 1710 nM
TGI (EKVX NSCLC): > 23800 nM
GI50 (HCT-116 colon): 429 nM
TGI (HCT-116 colon): 1760 nM
GI50 (SK-MEL-5 melanoma): 1690 nM
TGI (SK-MEL-5 melanoma): 3510 nM
GI50 (PC-3 prostate): 1490 nM
TGI (PC-3 prostate): > 21100 nM
GI50 (SF-539 CNS): 966 nM
GI50 (MDA-MB-435): 1010 nM
TGI (MDA-MB-435): 3390 nM
GI50 (SF-295 CNS): 932 nM
TGI (SF-295 CNS): > 22500 nM
GI50 (UO-31 renal): 312 nM
TGI (UO-31 renal): 2240 nM
GI50 (HS 578T breast): 1590 nM
TGI (HS 578T breast): > 21500 nM
GI50 (ACHN renal): 324 nM
TGI (ACHN renal): 1480 nM
GI50 (UACC-62 melanoma): 1400 nM
TGI (UACC-62 melanoma): 5210 nM
GI50 (OVCAR-4 ovarian): 1650 nM
TGI (OVCAR-4 ovarian): 5730 nM
GI50 (LOX IMVI melanoma): 601 nM
TGI (LOX IMVI melanoma): 2800 nM
GI50 (HL-60(TB) leukemia): 1160 nM
TGI (HL-60(TB) leukemia): 4370 nM
GI50 (UACC-257 melanoma): 686 nM
TGI (UACC-257 melanoma): 2060 nM
GI50 (CCRF-CEM leukemia): 1220 nM
TGI (CCRF-CEM leukemia): > 33800 nM
GI50 (SK-MEL-28 melanoma): 2270 nM
GI50 (HOP-92 NSCLC): 634 nM
TGI (HOP-92 NSCLC): 4580 nM
GI50 (HT29 colon): 546 nM
TGI (HT29 colon): 6800 nM
GI50 (HCT-15 colon): 1010 nM
TGI (HCT-15 colon): 6170 nM

CO/N=C1\CCc2c(sc(NC(=O)c3cccc(C(F)(F)F)c3)c2C(N)=O)C1
GI50 (SR leukemia): > 100000 nM
TGI (SR leukemia): > 100000 nM
GI50 (RXF 393 renal): 1910 nM
TGI (RXF 393 renal): 3650 nM
GI50 (BT-549 breast): 3530 nM
TGI (BT-549 breast): > 100000 nM
GI50 (K-562 leukemia): > 100000 nM
TGI (K-562 leukemia): > 100000 nM
GI50 (MOLT-4 leukemia): > 100000 nM
TGI (MOLT-4 leukemia): > 100000 nM
GI50 (MCF7 breast): 2370 nM
TGI (MCF7 breast): > 100000 nM
GI50 (SF-268 CNS): 4250 nM
TGI (SF-268 CNS): > 100000 nM
GI50 (SK-MEL-2 melanoma): 4080 nM
TGI (SK-MEL-2 melanoma): 96300 nM
GI50 (HL-60(TB) leukemia): > 100000 nM
TGI (HL-60(TB) leukemia): > 100000 nM
GI50 (HOP-92 NSCLC): 1560 nM
TGI (HOP-92 NSCLC): 4060 nM
